Source: patent US20110086759A1, “CHEMICAL COMPOUNDS” (SYNGENTA CROP PROTECTION, INC., priority 2007, published 2011)

Assays:
Format in all cases: in vivo
[1] = tested on: Alopecurus myosuroides (ALOMY); assay: Pre-emergence biological efficacy, glasshouse pot test; conditions: 312 h
Experimental: (§1) Seeds of Alopecurus myosuroides (ALOMY), Setaria faberi (SETFA), Echinochloa crus-galli (ECHCG), Solanum nigrum (SOLNI), Amaranthus retoflexus (AMARE) and Ipomea hederaceae (IPOHE) were sown in standard soil in pots. After cultivation for one day under controlled conditions in a glasshouse (at 24/16° C., day/night; 14 hours light; 65% humidity), the plants were sprayed with an aqueous spray solution derived from the formulation of the technical active ingredient in acetone/water (50:50) solution containing 0.5% Tween 20 (polyoxyethelyene sorbitan monolaurate, CAS RN 9005-64-5) to give a final dose of 1000 or 250 g/ha of test compound.
(§2) The test plants were then grown under controlled conditions in the glasshouse (at 24/16° C., day/night; 14 hours light; 65% humidity) and watered twice daily. After 13 days the test was evaluated (100=total damage to plant; 0=no damage to plant).

[2] = tested on: Ipomea hederaceae (IPOHE); assay: as above; conditions: Ipomoea hederacea, 312 h
Experimental: as §1, §2

[3] = tested on: Solanum nigrum (SOLNI); assay: as above; conditions: 312 h
Experimental: as §1, §2

[4] = tested on: Setaria faberi (SETFA); assay: as above; conditions: 312 h
Experimental: as §1, §2

[5] = tested on: Amaranthus retoflexus (AMARE); assay: as above; conditions: Amaranthus retroflexus, 312 h
Experimental: as §1, §2

[6] = tested on: Echinochloa crus-galli (ECHCG); assay: as above; conditions: 312 h
Experimental: as §1, §2

[7] = tested on: Alopecurus myosuroides (ALOMY); assay: Post-emergence biological efficacy, glasshouse pot test; conditions: 312 h
Experimental: as §1, with “8 days” for “one day”
(§3) The test plants were then grown on under controlled conditions in a glasshouse (at 24/16° C., day/night; 14 hours light; 65% humidity) and watered twice daily. After 13 days the test was evaluated (100=total damage to plant; 0=no damage to plant).

[8] = tested on: Ipomea hederaceae (IPOHE); assay: as above; conditions: Ipomoea hederacea, 312 h
Experimental: as §1, with “8 days” for “one day”
as §3

[9] = tested on: Solanum nigrum (SOLNI); assay: as above; conditions: 312 h
Experimental: as §1, with “8 days” for “one day”
as §3

[10] = tested on: Setaria faberi (SETFA); assay: as above; conditions: 312 h
Experimental: as §1, with “8 days” for “one day”
as §3

[11] = tested on: Amaranthus retoflexus (AMARE); assay: as above; conditions: Amaranthus retroflexus, 312 h
Experimental: as §1, with “8 days” for “one day”
as §3

[12] = tested on: Echinochloa crus-galli (ECHCG); assay: as above; conditions: 312 h
Experimental: as §1, with “8 days” for “one day”
as §3

[13] = pre-emergence, 1,000 g/ha, evaluated after 13 days (100=total damage; 0=no damage), read-out: Percentage damage ALOMY
[14] = pre-emergence, 1,000 g/ha, evaluated after 13 days (100=total damage; 0=no damage), read-out: Percentage damage IPOHE
[15] = pre-emergence, 1,000 g/ha, evaluated after 13 days (100=total damage; 0=no damage), read-out: Percentage damage SOLNI
[16] = pre-emergence, 1,000 g/ha, evaluated after 13 days (100=total damage; 0=no damage), read-out: Percentage damage SETFA
[17] = pre-emergence, 1,000 g/ha, evaluated after 13 days (100=total damage; 0=no damage), read-out: Percentage damage AMARE
[18] = pre-emergence, 1,000 g/ha, evaluated after 13 days (100=total damage; 0=no damage), read-out: Percentage damage ECHCG
[19] = post-emergence, 1,000 g/ha, evaluated after 13 days (100=total damage; 0=no damage), read-out: Percentage damage caused to weed species, ALOMY
[20] = post-emergence, 1,000 g/ha, evaluated after 13 days (100=total damage; 0=no damage), read-out: Percentage damage caused to weed species, IPOHE
[21] = post-emergence, 1,000 g/ha, evaluated after 13 days (100=total damage; 0=no damage), read-out: Percentage damage caused to weed species, SOLNI
[22] = post-emergence, 1,000 g/ha, evaluated after 13 days (100=total damage; 0=no damage), read-out: Percentage damage caused to weed species, SETFA
[23] = post-emergence, 1,000 g/ha, evaluated after 13 days (100=total damage; 0=no damage), read-out: Percentage damage caused to weed species, AMARE
[24] = post-emergence, 1,000 g/ha, evaluated after 13 days (100=total damage; 0=no damage), read-out: Percentage damage caused to weed species, ECHCG
[25] = pre-emergence, rate 1,000 g/ha, evaluated after 13 days (100=total damage to plant; 0=no damage), read-out: Percentage damage caused to weed species, ALOMY
[26] = pre-emergence, rate 1,000 g/ha, evaluated after 13 days (100=total damage to plant; 0=no damage), read-out: Percentage damage caused to weed species, IPOHE
[27] = pre-emergence, rate 1,000 g/ha, evaluated after 13 days (100=total damage to plant; 0=no damage), read-out: Percentage damage caused to weed species, SOLNI
[28] = pre-emergence, rate 1,000 g/ha, evaluated after 13 days (100=total damage to plant; 0=no damage), read-out: Percentage damage caused to weed species, SETFA
[29] = pre-emergence, rate 1,000 g/ha, evaluated after 13 days (100=total damage to plant; 0=no damage), read-out: Percentage damage caused to weed species, AMARE
[30] = pre-emergence, rate 1,000 g/ha, evaluated after 13 days (100=total damage to plant; 0=no damage), read-out: Percentage damage caused to weed species, ECHCG
[31] = Rate 1,000 g/ha, post-emergence spray, evaluated after 13 days (100=total damage to plant; 0=no damage to plant), read-out: Percentage damage caused to weed species, post-emergence, ALOMY
[32] = Rate 1,000 g/ha, post-emergence spray, evaluated after 13 days (100=total damage to plant; 0=no damage to plant), read-out: Percentage damage caused to weed species, post-emergence, IPOHE
[33] = Rate 1,000 g/ha, post-emergence spray, evaluated after 13 days (100=total damage to plant; 0=no damage to plant), read-out: Percentage damage caused to weed species, post-emergence, SOLNI
[34] = Rate 1,000 g/ha, post-emergence spray, evaluated after 13 days (100=total damage to plant; 0=no damage to plant), read-out: Percentage damage caused to weed species, post-emergence, SETFA
[35] = Rate 1,000 g/ha, post-emergence spray, evaluated after 13 days (100=total damage to plant; 0=no damage to plant), read-out: Percentage damage caused to weed species, post-emergence, AMARE
[36] = Rate 1,000 g/ha, post-emergence spray, evaluated after 13 days (100=total damage to plant; 0=no damage to plant), read-out: Percentage damage caused to weed species, post-emergence, ECHCG

COC(=O)c1nc(C2CC2)nc(N[C@@H](Cc2ccc(Cl)cc2)C(=O)OC)c1Cl [4-285 (S), 5-Chloro-4-[(1S)-2-(4-chlorophenyl)-1-methoxycarbonyl-ethylamino]-2-cyclopropyl-6-methoxycarbonyl-pyrimidine]
pest or weed control at 1000 g/ha [1, 13]: 20% | pest or weed control at 1000 g/ha [2, 14]: 70% | pest or weed control at 1000 g/ha [3, 15]: 90% | pest or weed control at 1000 g/ha [4, 16]: 20% | pest or weed control at 1000 g/ha [5, 17]: 90% | pest or weed control at 1000 g/ha [6, 18]: 30% | pest or weed control at 1000 g/ha [7, 19]: 20% | pest or weed control at 1000 g/ha [8, 20]: 90% | pest or weed control at 1000 g/ha [9, 21]: 90% | pest or weed control at 1000 g/ha [10, 22]: 40% | pest or weed control at 1000 g/ha [11, 23]: 100% | pest or weed control at 1000 g/ha [12, 24]: 20%

COC(=O)c1nc(C2CC2)nc(N[C@@H](Cc2cccc(C(F)(F)F)c2)C(=O)OC)c1Cl [4-286 (S), 5-Chloro-2-cyclopropyl-6-methoxycarbonyl-4-[(1S)-1-methoxy-carbonyl-2-(3-trifluoromethyl-phenyl)-ethylamino]-pyrimidine]
pest or weed control at 1000 g/ha [1, 13]: 10% | pest or weed control at 1000 g/ha [2, 14]: 100% | pest or weed control at 1000 g/ha [3, 15]: 80% | pest or weed control at 1000 g/ha [4, 16]: 20% | pest or weed control at 1000 g/ha [5, 17]: 90% | pest or weed control at 1000 g/ha [6, 18]: 20% | pest or weed control at 1000 g/ha [7, 19]: 10% | pest or weed control at 1000 g/ha [8, 20]: 50% | pest or weed control at 1000 g/ha [9, 21]: 80% | pest or weed control at 1000 g/ha [10, 22]: 20% | pest or weed control at 1000 g/ha [11, 23]: 100% | pest or weed control at 1000 g/ha [12, 24]: 10%

COC(=O)c1nc(C2CC2)nc(N[C@@H](Cc2ccc(O)cc2)C(=O)OC)c1Cl [4-287 (S), 5-Chloro-2-cyclopropyl-4-[(1S)-2-(4-hydroxyphenyl)-1-methoxycarbonyl-ethylamino]-6-methoxycarbonyl-pyrimidine]
pest or weed control at 1000 g/ha [1, 13]: 20% | pest or weed control at 1000 g/ha [2, 14]: 80% | pest or weed control at 1000 g/ha [3, 15]: 80% | pest or weed control at 1000 g/ha [4, 16]: 20% | pest or weed control at 1000 g/ha [5, 17]: 80% | pest or weed control at 1000 g/ha [6, 18]: 10% | pest or weed control at 1000 g/ha [7, 19]: 20% | pest or weed control at 1000 g/ha [8, 20]: 70% | pest or weed control at 1000 g/ha [9, 21]: 80% | pest or weed control at 1000 g/ha [10, 22]: 40% | pest or weed control at 1000 g/ha [11, 23]: 100% | pest or weed control at 1000 g/ha [12, 24]: 60%

COC(=O)c1nc(C2CC2)nc(N[C@@H](Cc2ccc(OC(C)(C)C)cc2)C(=O)OC)c1Cl [4-288 (S), 4-[(1S)-2-(4-^tButoxyphenyl)-1-methoxycarbonyl-ethylamino]-5-chloro-2-cyclopropyl-6-methoxycarbonyl-pyrimidine]
pest or weed control at 1000 g/ha [1, 13]: 0% | pest or weed control at 1000 g/ha [2, 14]: 60% | pest or weed control at 1000 g/ha [3, 15]: 40% | pest or weed control at 1000 g/ha [4, 16]: 0% | pest or weed control at 1000 g/ha [5, 17]: 80% | pest or weed control at 1000 g/ha [6, 18]: 0% | pest or weed control at 1000 g/ha [7, 19]: 10% | pest or weed control at 1000 g/ha [8, 20]: 50% | pest or weed control at 1000 g/ha [9, 21]: 80% | pest or weed control at 1000 g/ha [10, 22]: 10% | pest or weed control at 1000 g/ha [11, 23]: 80% | pest or weed control at 1000 g/ha [12, 24]: 0%

CCOC(=O)[C@H](CSc1ccccc1)Nc1nc(C2CC2)nc(C(=O)OC)c1Cl [4-292 (R), 5-Chloro-2-cyclopropyl-4-[(1R)-1-ethoxycarbonyl-2-phenylthio-ethylamino]-6-methoxycarbonyl-pyrimidine]
pest or weed control at 1000 g/ha [1, 13]: 20% | pest or weed control at 1000 g/ha [2, 14]: 100% | pest or weed control at 1000 g/ha [3, 15]: 80% | pest or weed control at 1000 g/ha [4, 16]: 10% | pest or weed control at 1000 g/ha [5, 17]: 100% | pest or weed control at 1000 g/ha [6, 18]: 20% | pest or weed control at 1000 g/ha [7, 19]: 20% | pest or weed control at 1000 g/ha [8, 20]: 60% | pest or weed control at 1000 g/ha [9, 21]: 70% | pest or weed control at 1000 g/ha [10, 22]: 50% | pest or weed control at 1000 g/ha [11, 23]: 100% | pest or weed control at 1000 g/ha [12, 24]: 30%

COC(=O)c1nc(C2CC2)nc(N[C@@H](Cc2ccccc2)C(=O)OC(C)(C)C)c1Cl [4-293 (S), 4-[(1S)-1-^tButoxycarbonyl-2-phenyl-ethylamino]-5-chloro-2-cyclopropyl-6-methoxycarbonyl-pyrimidine]
pest or weed control at 1000 g/ha [1, 25]: 10% | pest or weed control at 1000 g/ha [2, 26]: 60% | pest or weed control at 1000 g/ha [3, 27]: 50% | pest or weed control at 1000 g/ha [4, 28]: 0% | pest or weed control at 1000 g/ha [5, 29]: 40% | pest or weed control at 1000 g/ha [6, 30]: 20% | pest or weed control at 1000 g/ha [7, 31]: 10% | pest or weed control at 1000 g/ha [8, 32]: 80% | pest or weed control at 1000 g/ha [9, 33]: 80% | pest or weed control at 1000 g/ha [10, 34]: 40% | pest or weed control at 1000 g/ha [11, 35]: 100% | pest or weed control at 1000 g/ha [12, 36]: 20%

COC(=O)c1nc(C2CC2)nc(N(C)[C@@H](Cc2ccccc2)C(=O)OC)c1Cl [5-283 (S), 5-Chloro-2-cyclopropyl-6-methoxycarbonyl-4-{N-[(1S)-1-methoxycarbonyl-2-phenyl-ethyl]-N-methyl-amino}-pyrimidine]
pest or weed control at 1000 g/ha [1, 25]: 0% | pest or weed control at 1000 g/ha [2, 26]: 30% | pest or weed control at 1000 g/ha [3, 27]: 40% | pest or weed control at 1000 g/ha [4, 28]: 0% | pest or weed control at 1000 g/ha [5, 29]: 80% | pest or weed control at 1000 g/ha [6, 30]: 0% | pest or weed control at 1000 g/ha [7, 31]: 10% | pest or weed control at 1000 g/ha [8, 32]: 50% | pest or weed control at 1000 g/ha [9, 33]: 70% | pest or weed control at 1000 g/ha [10, 34]: 40% | pest or weed control at 1000 g/ha [11, 35]: 100% | pest or weed control at 1000 g/ha [12, 36]: 10%
